One assay addresses Ku70–Ku80 (Homo sapiens, UniProt P12956+P13010). The assay is described as follows: nano Differential Scanning Fluorometry. The assay is classed as binding. The settings on record: 0 to 25 μM ligand.
The next assay addresses Ku70/80 (Homo sapiens, UniProt P12956+P13010). The assay is described as follows: Ku–DNA binding EMSA. The settings on record: for IC50: Ku70/80 (IC50), purified Ku70/80, direct DNA binding activity by EMSA.
For a further assay, the target named is DNA-PK (Homo sapiens, UniProt P12956+P13010). As to the kind of experiment: DNA-PK phosphoryl-transferase catalytic. The assay is classed as biochemical.
DNA-PK, sequence (P12956 whole entry): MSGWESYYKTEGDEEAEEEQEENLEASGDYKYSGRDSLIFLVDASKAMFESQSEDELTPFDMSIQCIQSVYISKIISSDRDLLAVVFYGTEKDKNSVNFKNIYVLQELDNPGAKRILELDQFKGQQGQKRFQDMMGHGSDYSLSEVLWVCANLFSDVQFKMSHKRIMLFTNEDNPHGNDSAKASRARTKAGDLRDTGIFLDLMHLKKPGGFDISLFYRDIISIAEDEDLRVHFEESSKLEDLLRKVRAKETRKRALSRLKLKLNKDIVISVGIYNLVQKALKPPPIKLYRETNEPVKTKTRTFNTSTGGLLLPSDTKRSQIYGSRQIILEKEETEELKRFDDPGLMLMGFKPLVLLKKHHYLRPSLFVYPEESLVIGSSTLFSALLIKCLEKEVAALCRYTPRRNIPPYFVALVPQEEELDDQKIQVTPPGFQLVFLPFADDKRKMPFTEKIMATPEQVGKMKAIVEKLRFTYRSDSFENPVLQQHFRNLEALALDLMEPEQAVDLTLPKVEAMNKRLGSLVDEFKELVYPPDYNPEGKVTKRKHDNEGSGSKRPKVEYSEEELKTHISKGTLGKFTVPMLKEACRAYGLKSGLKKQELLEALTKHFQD
DNA-PK, sequence (P13010 whole entry): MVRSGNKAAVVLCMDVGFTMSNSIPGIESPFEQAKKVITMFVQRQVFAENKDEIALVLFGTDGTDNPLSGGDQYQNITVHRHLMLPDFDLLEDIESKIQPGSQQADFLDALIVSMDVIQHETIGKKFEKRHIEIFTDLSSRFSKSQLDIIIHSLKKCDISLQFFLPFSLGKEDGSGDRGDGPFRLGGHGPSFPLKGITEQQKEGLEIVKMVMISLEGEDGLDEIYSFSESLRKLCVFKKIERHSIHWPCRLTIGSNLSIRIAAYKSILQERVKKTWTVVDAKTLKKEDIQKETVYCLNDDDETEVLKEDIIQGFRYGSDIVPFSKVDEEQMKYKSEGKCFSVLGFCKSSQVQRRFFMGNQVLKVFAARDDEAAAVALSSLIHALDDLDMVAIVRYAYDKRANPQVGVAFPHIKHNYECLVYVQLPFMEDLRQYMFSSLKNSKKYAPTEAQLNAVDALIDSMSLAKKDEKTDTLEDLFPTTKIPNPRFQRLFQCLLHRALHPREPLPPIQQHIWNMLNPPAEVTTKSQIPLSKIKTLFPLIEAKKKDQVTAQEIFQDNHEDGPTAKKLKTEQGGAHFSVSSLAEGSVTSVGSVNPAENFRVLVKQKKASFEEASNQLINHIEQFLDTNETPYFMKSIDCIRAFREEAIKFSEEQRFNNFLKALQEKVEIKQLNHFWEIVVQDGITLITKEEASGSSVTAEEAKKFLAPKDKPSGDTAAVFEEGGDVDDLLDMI
The subject of the next assay is p53 phosphorylation. The settings on record: through p53 phosphorylation, ATM pathway activation; cited from earlier work.
The subject of the next assay is Ku70/80 protein. The settings on record: gel-based TSA; cited from earlier work.
A further assay concerns NHEJ. Particulars: earlier report; cited from earlier work.

Ku70/80, sequence (P12956 whole entry): as the sequence (P12956 whole entry) above
Ku70/80, sequence (P13010 whole entry): as the sequence (P13010 whole entry) above
Ku70–Ku80, sequence (P12956 whole entry): as the sequence (P12956 whole entry) above
Ku70–Ku80, sequence (P13010 whole entry): as the sequence (P13010 whole entry) above

In the case of `COc1cccc(NC(=O)c2cc(-c3ccc(CC4C(=O)N(c5cccc(C(=O)O)c5)N=C4C)o3)ccc2Cl)c1` (centres unmarked) [53 (149), 3-(4-((5-(4-chloro-3-((3-methoxyphenyl)carbamoyl)phenyl)furan-2-yl)methyl)-3-methyl-5-oxo-4,5-dihydro-1H-pyrazol-1-yl)benzoic acid], the “shift in thermal stability (qualitative)” value at Ku70–Ku80 was “concentration-dependent induction of a shift in thermal stability”.
As to `COc1cccc(NC(=O)c2cc(-c3ccc(/C=C4\C(=O)N(c5ccc(S(N)(=O)=O)cc5)N=C4C)o3)ccc2Cl)c1` [Compound 67, (Z)-2-Chloro-N-(3-methoxyphenyl)-5-(5-((3-methyl-5-oxo-1-(4-sulfamoylphenyl)-1,5-dihydro-4H-pyrazol-4-ylidene)methyl)furan-2-yl)benzamide], the IC50 on Ku70/80 is 11300 ± 2160 nM; against DNA-PK, 1410 ± 270 nM.
Regarding `CC1=NN(c2ccc(S(N)(=O)=O)cc2)C(=O)/C1=C\c1ccc(-c2ccc(Cl)c(C(=O)NCc3ccc(F)cc3)c2)o1` [Compound 69, (Z)-2-Chloro-N-(4-fluorobenzyl)-5-(5-((3-methyl-5-oxo-1-(4-sulfamoylphenyl)-1,5-dihydro-4H-pyrazol-4-ylidene)methyl)furan-2-yl)benzamide], the IC50 at Ku70/80 is 20700 ± 1840 nM; at DNA-PK it was 1530 ± 220 nM.
As for `COc1cccc(NC(=O)c2cc(-c3ccc(CC4C(=O)N(c5ccc(S(N)(=O)=O)cc5)N=C4C)o3)ccc2Cl)c1` (centres unmarked) [Compound 70, 2-chloro-N-(3-methoxyphenyl)-5-(5-((3-methyl-5-oxo-1-(4-sulfamoylphenyl)-4,5-dihydro-1H-pyrazol-4-yl)methyl)furan-2-yl)benzamide], the half-inhibitory concentration (IC50) at Ku70/80 worked out at 7860 ± 4400 nM; against DNA-PK, 570 ± 120 nM. Further, on Ku70/80 (compared with compound 67), the “increase in Ku inhibitory activity” value is 1–2.5 fold. Also, the “increase in DNA-PK activity” value at DNA-PK (compared with compound 67) is 1–2.5 fold.
For the molecule `COc1cccc(NC(=O)c2cc(-c3ccc(/C=C4\C(=O)N(c5cccc(-c6nnn[nH]6)c5)N=C4C)o3)ccc2Cl)c1` [Compound 75, (Z)-5-(5-((1-(3-(1H-tetrazol-5-yl)phenyl)-3-methyl-5-oxo-1,5-dihydro-4H-pyrazol-4-ylidene)methyl)furan-2-yl)-2-chloro-N-(3-methoxyphenyl)benzamide], the IC50 came to 3510 ± 1810 nM at Ku70/80 and 980 ± 520 nM against DNA-PK.
In the case of `COc1cccc(NC(=O)c2cc(-c3ccc(CC4C(=O)N(c5cccc(-c6nnn[nH]6)c5)N=C4C)o3)ccc2Cl)c1` (centres unmarked) [Compound 76 (245), 5-(5-((1-(3-(1H-tetrazol-5-yl)phenyl)-3-methyl-5-oxo-4,5-dihydro-1H-pyrazol-4-yl)methyl)furan-2-yl)-2-chloro-N-(3-methoxyphenyl)benzamide], in the assay on p53 phosphorylation, the “potentiation of cellular effects of bleomycin and IR” value was “potentiates the cellular effects of bleomycin and IR”. For the same molecule, the “direct interaction with Ku70/80 protein” value in the assay with Ku70/80 protein was “directly interacts with the Ku70/80 protein”. In the assay with NHEJ, the “effect in CRISPR gene-editing model” value was “inhibiting NHEJ and activating homologous recombination to increase the efficiency of gene insertion”.

The values above are taken from PMC12452633 (RSC Medicinal Chemistry, 2025).
